According to patent US8778871B2 (Takeda Pharmaceutical Company Limited, priority 2004, dated 2014):
Starred links: 1 amine or outer side, 2 acyl side, 3 side chain; linkers in the order of their positions; H or OH if unused. Non-standard residues stand in square brackets, D forms with d. Residues, ends and D or L forms follow the SMILES beside them. X3 = O=C(CNC(=S)[C@H](Cc1ccccc1)N[*:1])[*:2]; X8 = O=C([C@H](Cc1ccc2ccccc2n1)N[*:1])[*:2]; Arg(Me) = CNC(=N)NCCC[C@H](N)C(=O)O; Bta = N[C@@H](Cc1csc2ccccc12)C(=O)O; Cha = N[C@@H](CC1CCCCC1)C(=O)O; azaGly = NNC(=O)O

Target: T1, hOT7T175 (Homo sapiens, UniProt Q969F8, L364H)
T1 construct: expressed in transfected cells
Experiment: Intracellular Ca ion level-increasing activity using FLIPR (180 seconds; specific activity to Metastin (1-54))
Format: cell-based
Details: hOT7T175/CHO, relative to Metastin (1-54) = 1

T1 sequence (Q969F8 whole entry L364H): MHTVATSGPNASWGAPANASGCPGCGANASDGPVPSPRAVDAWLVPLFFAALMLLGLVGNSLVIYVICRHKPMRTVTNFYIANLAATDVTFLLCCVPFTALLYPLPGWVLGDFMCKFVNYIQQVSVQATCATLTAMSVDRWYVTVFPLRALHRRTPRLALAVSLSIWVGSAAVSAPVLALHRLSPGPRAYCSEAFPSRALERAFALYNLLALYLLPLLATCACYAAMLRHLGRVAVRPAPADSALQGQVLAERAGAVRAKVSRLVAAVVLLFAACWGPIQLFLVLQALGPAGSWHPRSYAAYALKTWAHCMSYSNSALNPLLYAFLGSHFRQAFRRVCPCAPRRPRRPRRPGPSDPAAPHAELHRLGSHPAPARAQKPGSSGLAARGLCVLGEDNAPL

Structure (SMILES) | Specific Act. (intracellular Ca ion level-increasing activity, specific activity to Metastin (1-54))
CC(C)C[C@H](NC(=O)CNC(=S)[C@H](Cc1ccccc1)NC(=O)[C@H](CO)NC(=O)[C@H](CC(N)=O)NC(=O)[C@H](Cc1c[nH]c2ccccc12)NC(=O)[C@H](CC(N)=O)NC(=O)[C@@H](N)Cc1ccc(O)cc1)C(=O)N[C@@H](CCCNC(=N)N)C(=O)N[C@@H](Cc1ccccc1)C(N)=O [Compound No. 166, Tyr-Asn-Trp-Asn-Ser-PheΨ(CSNH)Gly-Leu-Arg-Phe-NH2] (H-YNWNS[X3]LRF-NH2) | 5
CNC(=N)NCCC[C@H](NC(=O)[C@H](CC(C)C)NC(=O)CNC(=O)[C@H](Cc1ccccc1)NC(=O)[C@H](CO)NC(=O)[C@H](CC(N)=O)NC(=O)[C@H](C)NC(=O)[C@H](CC(N)=O)NC(=O)[C@H](N)Cc1ccc(O)cc1)C(=O)N[C@@H](Cc1ccccc1)C(N)=O [Compound No. 169] (H-[dY]NANSFGL[Arg(Me)]F-NH2) | 2
CNC(=N)NCCC[C@H](NC(=O)[C@H](CC(C)C)NC(=O)CNC(=O)[C@H](Cc1ccccc1)NC(=O)[C@H](CO)NC(=O)[C@H](CC(N)=O)NC(=O)[C@H](CO)NC(=O)[C@H](CC(N)=O)NC(=O)[C@H](N)Cc1ccc(O)cc1)C(=O)N[C@@H](Cc1ccccc1)C(N)=O [Compound No. 170] (H-[dY]NSNSFGL[Arg(Me)]F-NH2) | 1
CNC(=N)NCCC[C@H](NC(=O)[C@H](CC(C)C)NC(=O)CNC(=O)[C@H](Cc1ccccc1)NC(=O)[C@H](CO)NC(=O)[C@H](CC(N)=O)NC(=O)[C@H](CC1CCCCC1)NC(=O)[C@H](CC(N)=O)NC(=O)[C@H](N)Cc1ccc(O)cc1)C(=O)N[C@@H](Cc1ccccc1)C(N)=O [Compound No. 171, D-Tyr-Asn-Cha-Asn-Ser-Phe-Gly-Leu-Arg(Me)-Phe-NH2] (H-[dY]N[Cha]NSFGL[Arg(Me)]F-NH2) | 10
CNC(=N)NCCC[C@H](NC(=O)[C@H](CC(C)C)NC(=O)CNC(=O)[C@H](CC1CCCCC1)NC(=O)[C@H](CO)NC(=O)[C@H](CC(N)=O)NC(=O)[C@H](CC1CCCCC1)NC(=O)[C@H](CC(N)=O)NC(=O)[C@H](N)Cc1ccc(O)cc1)C(=O)N[C@@H](Cc1c[nH]c2ccccc12)C(N)=O [Compound No. 182, D-Tyr-Asn-Cha-Asn-Ser-Cha-Gly-Leu-Arg(Me)-Trp-NH2] (H-[dY]N[Cha]NS[Cha]GL[Arg(Me)]W-NH2) | 5
CC(C)C[C@H](NC(=O)CNC(=O)[C@H](Cc1ccccc1)NC(=O)[C@H](CO)NC(=O)[C@H](CC(N)=O)NC(=O)[C@H](Cc1c[nH]c2ccccc12)NC(=O)[C@H](CC(N)=O)NC(=O)[C@@H](N)Cc1ccc(O)cc1)C(=O)N[C@@H](CCCNC(=N)N)C(=O)N[C@@H](Cc1csc2ccccc12)C(N)=O [Compound No. 189] (H-YNWNSFGLR[Bta]-NH2) | 10
CNC(=N)NCCC[C@H](NC(=O)[C@H](CC(C)C)NC(=O)NNC(=O)[C@H](Cc1ccccc1)NC(=O)[C@H](CO)NC(=O)[C@H](CC(N)=O)NC(=O)[C@H](CC1CCCCC1)NC(=O)[C@H](CC(N)=O)NC(=O)[C@H](N)Cc1ccc(O)cc1)C(=O)N[C@@H](Cc1ccccc1)C(N)=O [Compound No. 190, D-Tyr-Asn-Cha-Asn-Ser-Phe-AzaGly-Leu-Arg(Me)-Phe-NH2] (H-[dY]N[Cha]NSF[azaGly]L[Arg(Me)]F-NH2) | 10
CCNC(=N)NCCC[C@H](NC(=O)[C@H](CC(C)C)NC(=O)CNC(=O)[C@H](Cc1ccccc1)NC(=O)[C@H](CO)NC(=O)[C@H](CC(N)=O)NC(=O)[C@H](Cc1c[nH]c2ccccc12)NC(=O)[C@H](CC(N)=O)NC(=O)[C@H](N)Cc1ccc(O)cc1)C(=O)N[C@@H](Cc1ccccc1)C(N)=O [Compound No. 192] | 1
CCCNC(=N)NCCC[C@H](NC(=O)[C@H](CC(C)C)NC(=O)CNC(=O)[C@H](Cc1ccccc1)NC(=O)[C@H](CO)NC(=O)[C@H](CC(N)=O)NC(=O)[C@H](Cc1c[nH]c2ccccc12)NC(=O)[C@H](CC(N)=O)NC(=O)[C@H](N)Cc1ccc(O)cc1)C(=O)N[C@@H](Cc1ccccc1)C(N)=O [Compound No. 193] | ½
CC(C)C[C@H](NC(=O)CNC(=O)[C@H](Cc1ccccc1)NC(=O)[C@H](CO)NC(=O)[C@H](CC(N)=O)NC(=O)[C@H](Cc1c[nH]c2ccccc12)NC(=O)[C@H](CC(N)=O)NC(=O)[C@@H](N)Cc1ccc(O)cc1)C(=O)N[C@@H](CCCNC(=N)N)C(=O)N[C@@H](Cc1cccc(F)c1)C(N)=O [Compound No. 197] | 10
CC(C)C[C@H](NC(=O)CNC(=O)[C@H](Cc1ccccc1)NC(=O)[C@H](CO)NC(=O)[C@H](CC(N)=O)NC(=O)[C@H](Cc1c[nH]c2ccccc12)NC(=O)[C@H](CC(N)=O)NC(=O)[C@@H](N)Cc1ccc(O)cc1)C(=O)N[C@@H](CCCNC(=N)N)C(=O)N[C@@H](Cc1ccc(F)c(F)c1)C(N)=O [Compound No. 198] | 10
CC(C)C[C@H](NC(=O)CNC(=O)[C@H](Cc1ccccc1)NC(=O)[C@H](CO)NC(=O)[C@H](CC(N)=O)NC(=O)[C@H](Cc1c[nH]c2ccccc12)NC(=O)[C@H](CC(N)=O)NC(=O)[C@@H](N)Cc1ccc(O)cc1)C(=O)N[C@@H](CCCNC(=N)N)C(=O)N[C@@H](Cc1ccc(Cl)c(Cl)c1)C(N)=O [Compound No. 199] | 3
CC(C)C[C@H](NC(=O)CNC(=O)[C@H](Cc1ccccc1)NC(=O)[C@H](CO)NC(=O)[C@H](CC(N)=O)NC(=O)[C@H](Cc1c[nH]c2ccccc12)NC(=O)[C@H](CC(N)=O)NC(=O)[C@@H](N)Cc1ccc(O)cc1)C(=O)N[C@@H](CCCNC(=N)N)C(=O)N[C@@H](Cc1cccc(C(F)(F)F)c1)C(N)=O [Compound No. 200] | 10
CC(C)C[C@H](NC(=O)CNC(=O)[C@H](Cc1ccccc1)NC(=O)[C@H](CO)NC(=O)[C@H](CC(N)=O)NC(=O)[C@H](Cc1c[nH]c2ccccc12)NC(=O)[C@H](CC(N)=O)NC(=O)[C@@H](N)Cc1ccc(O)cc1)C(=O)N[C@@H](CCCNC(=N)N)C(=O)N[C@@H](Cc1ccc2ccccc2n1)C(N)=O [Compound No. 201] (H-YNWNSFGLR[X8]-NH2) | 1
CNC(=N)NCCC[C@H](NC(=O)[C@H](CC(C)C)NC(=O)CNC(=O)[C@H](CC1CCCCC1)NC(=O)[C@H](CO)NC(=O)[C@H](CC(N)=O)NC(=O)[C@H](Cc1c[nH]c2ccccc12)NC(=O)[C@H](CC(N)=O)NC(=O)[C@H](N)Cc1ccc(O)cc1)C(=O)N[C@@H](Cc1ccccc1)C(N)=O [Compound No. 203, D-Tyr-Asn-Trp-Asn-Ser-Cha-Gly-Leu-Arg(Me)-Phe-NH2] (H-[dY]NWNS[Cha]GL[Arg(Me)]F-NH2) | 10
CNC(=N)NCCC[C@H](NC(=O)[C@H](CC(C)C)NC(=O)[C@H](C)NC(=O)[C@H](Cc1ccccc1)NC(=O)[C@H](CO)NC(=O)[C@H](CC(N)=O)NC(=O)[C@H](Cc1c[nH]c2ccccc12)NC(=O)[C@H](CC(N)=O)NC(=O)[C@H](N)Cc1ccc(O)cc1)C(=O)N[C@@H](Cc1ccccc1)C(N)=O [Compound No. 204] (H-[dY]NWNSFAL[Arg(Me)]F-NH2) | 5
CNC(=N)NCCC[C@H](NC(=O)[C@H](CC(C)C)NC(=O)CNC(=O)[C@H](Cc1ccccc1)NC(=O)[C@H](CO)NC(=O)[C@H](CC(N)=O)NC(=O)[C@@H](NC(=O)[C@H](CC(N)=O)NC(=O)[C@H](N)Cc1ccc(O)cc1)[C@@H](C)O)C(=O)N[C@@H](Cc1ccccc1)C(N)=O [Compound No. 205] (H-[dY]NTNSFGL[Arg(Me)]F-NH2) | 10
CNC(=N)NCCC[C@H](NC(=O)[C@@H](NC(=O)CNC(=O)[C@H](Cc1ccccc1)NC(=O)[C@H](CO)NC(=O)[C@H](CC(N)=O)NC(=O)[C@H](Cc1c[nH]c2ccccc12)NC(=O)[C@H](CC(N)=O)NC(=O)[C@H](N)Cc1ccc(O)cc1)C(C)C)C(=O)N[C@@H](Cc1ccccc1)C(N)=O [Compound No. 213] (H-[dY]NWNSFGV[Arg(Me)]F-NH2) | 2
CNC(=N)NCCC[C@H](NC(=O)[C@H](CC(C)C)NC(=O)CNC(=O)[C@H](Cc1ccccc1)NC(=O)[C@H](CO)NC(=O)[C@H](CC(N)=O)NC(=O)[C@H](Cc1c[nH]c2ccccc12)NC(=O)[C@H](CCC(N)=O)NC(=O)[C@H](N)Cc1ccc(O)cc1)C(=O)N[C@@H](Cc1ccccc1)C(N)=O [Compound No. 214] (H-[dY]QWNSFGL[Arg(Me)]F-NH2) | 10
CNC(=N)NCCC[C@H](NC(=O)[C@H](CC(C)C)NC(=O)CNC(=O)[C@H](Cc1ccccc1)NC(=O)[C@H](CO)NC(=O)[C@H](CC(N)=O)NC(=O)[C@H](Cc1c[nH]c2ccccc12)NC(=O)[C@@H](NC(=O)[C@H](N)Cc1ccc(O)cc1)[C@@H](C)O)C(=O)N[C@@H](Cc1ccccc1)C(N)=O [Compound No. 215] (H-[dY]TWNSFGL[Arg(Me)]F-NH2) | 10
CNC(=N)NCCC[C@H](NC(=O)[C@H](CC(C)C)NC(=O)CNC(=O)[C@H](Cc1ccccc1)NC(=O)[C@H](CO)NC(=O)[C@H](CC(N)=O)NC(=O)[C@H](Cc1c[nH]c2ccccc12)NC(=O)[C@H](N)CC(N)=O)C(=O)N[C@@H](Cc1ccccc1)C(N)=O [Compound No. 216] (H-[dN]WNSFGL[Arg(Me)]F-NH2) | 1
CCNC(=N)NCCC[C@H](NC(=O)[C@H](CC(C)C)NC(=O)CNC(=O)[C@H](Cc1ccccc1)NC(=O)[C@H](CO)NC(=O)[C@H](CC(N)=O)NC(=O)[C@H](Cc1c[nH]c2ccccc12)NC(=O)[C@H](CC(N)=O)NC(=O)[C@@H](N)Cc1ccc(O)cc1)C(=O)N[C@@H](Cc1ccccc1)C(N)=O [Compound No. 220] | 5
